Assay results taken from publication doi:10.1101/2020.07.01.182642v1 (biorxiv, 2020).
Blank lines part the entries; values can stand above or below the compound they belong to.

Assays:
Details in all cases: binder
[1] = biological target: AAK1 (Homo sapiens, UniProt Q2M2I8)
[2] = biological target: STK10 (Homo sapiens, UniProt O94804)
[3] = biological target: CAMK1D (Homo sapiens, UniProt Q8IU85)
[4] = biological target: CSNK1G1 (Homo sapiens, UniProt Q9HCP0)
[5] = biological target: PAK7 (Homo sapiens, UniProt Q9P286)
[6] = biological target: PAK4 (Homo sapiens, UniProt O96013)
[7] = biological target: PIM3 (Homo sapiens, UniProt Q86V86)
[8] = biological target: CDK8 (Homo sapiens, UniProt P49336)
[9] = biological target: CAMK2A (Homo sapiens, UniProt Q9UQM7)
[10] = biological target: CDK2 (Homo sapiens, UniProt P24941)
[11] = biological target: PKN1 (Homo sapiens, UniProt Q16512)
[12] = biological target: ZAK (Homo sapiens, UniProt Q9NYL2)
[13] = biological target: T1, TTK (Homo sapiens, UniProt P33981)
T1 sequence (P33981 1-857): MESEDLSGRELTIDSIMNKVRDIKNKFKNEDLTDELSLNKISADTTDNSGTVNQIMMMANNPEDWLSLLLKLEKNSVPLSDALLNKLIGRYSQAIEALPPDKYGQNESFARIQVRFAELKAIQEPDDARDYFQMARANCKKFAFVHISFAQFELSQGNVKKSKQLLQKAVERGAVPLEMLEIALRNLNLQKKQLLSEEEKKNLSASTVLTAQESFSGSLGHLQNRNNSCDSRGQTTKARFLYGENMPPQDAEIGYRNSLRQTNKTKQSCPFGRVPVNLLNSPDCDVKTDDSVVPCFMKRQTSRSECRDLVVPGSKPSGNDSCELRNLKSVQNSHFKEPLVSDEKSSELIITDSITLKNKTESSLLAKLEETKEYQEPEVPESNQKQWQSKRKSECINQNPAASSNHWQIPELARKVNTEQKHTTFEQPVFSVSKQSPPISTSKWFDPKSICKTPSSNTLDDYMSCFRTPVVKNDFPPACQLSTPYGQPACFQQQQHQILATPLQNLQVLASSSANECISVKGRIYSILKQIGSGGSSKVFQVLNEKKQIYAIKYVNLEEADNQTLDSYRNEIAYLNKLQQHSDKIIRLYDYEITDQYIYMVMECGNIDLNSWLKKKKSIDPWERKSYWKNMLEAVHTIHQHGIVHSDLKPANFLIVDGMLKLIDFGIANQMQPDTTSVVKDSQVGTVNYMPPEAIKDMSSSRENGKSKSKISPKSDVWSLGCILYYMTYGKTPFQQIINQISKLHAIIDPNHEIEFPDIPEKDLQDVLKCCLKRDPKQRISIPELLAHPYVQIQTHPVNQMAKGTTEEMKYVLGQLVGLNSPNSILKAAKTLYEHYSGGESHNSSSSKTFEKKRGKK

[14] = biological target: PLK1 (Homo sapiens, UniProt P53350)
[15] = biological target: T2, PHKG2 (Homo sapiens, UniProt P15735)
T2 sequence (P15735 1-406): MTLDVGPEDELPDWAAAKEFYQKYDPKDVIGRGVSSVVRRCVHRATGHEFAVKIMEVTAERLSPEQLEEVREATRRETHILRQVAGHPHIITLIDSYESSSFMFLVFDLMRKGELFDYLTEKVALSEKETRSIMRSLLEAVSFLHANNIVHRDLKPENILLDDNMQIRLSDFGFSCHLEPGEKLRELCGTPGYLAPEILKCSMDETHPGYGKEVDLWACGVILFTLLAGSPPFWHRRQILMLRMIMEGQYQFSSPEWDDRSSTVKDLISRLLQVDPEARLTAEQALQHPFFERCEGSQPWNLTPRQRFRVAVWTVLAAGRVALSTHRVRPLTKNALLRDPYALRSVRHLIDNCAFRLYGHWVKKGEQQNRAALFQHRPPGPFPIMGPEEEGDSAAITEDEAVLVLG

[16] = biological target: T3, STK17B (Homo sapiens, UniProt O94768)
T3 sequence (O94768 1-372): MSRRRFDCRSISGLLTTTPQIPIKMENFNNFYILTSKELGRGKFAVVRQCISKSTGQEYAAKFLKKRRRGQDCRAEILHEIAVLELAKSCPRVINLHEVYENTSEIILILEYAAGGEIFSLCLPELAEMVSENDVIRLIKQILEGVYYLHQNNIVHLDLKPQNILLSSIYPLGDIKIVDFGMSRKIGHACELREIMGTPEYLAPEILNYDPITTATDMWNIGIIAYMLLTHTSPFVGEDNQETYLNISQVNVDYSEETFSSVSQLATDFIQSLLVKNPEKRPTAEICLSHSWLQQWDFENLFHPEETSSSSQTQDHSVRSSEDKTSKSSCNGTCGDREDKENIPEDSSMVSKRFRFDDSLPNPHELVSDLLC

Sequence of CAMK2A (Q9UQM7 whole entry): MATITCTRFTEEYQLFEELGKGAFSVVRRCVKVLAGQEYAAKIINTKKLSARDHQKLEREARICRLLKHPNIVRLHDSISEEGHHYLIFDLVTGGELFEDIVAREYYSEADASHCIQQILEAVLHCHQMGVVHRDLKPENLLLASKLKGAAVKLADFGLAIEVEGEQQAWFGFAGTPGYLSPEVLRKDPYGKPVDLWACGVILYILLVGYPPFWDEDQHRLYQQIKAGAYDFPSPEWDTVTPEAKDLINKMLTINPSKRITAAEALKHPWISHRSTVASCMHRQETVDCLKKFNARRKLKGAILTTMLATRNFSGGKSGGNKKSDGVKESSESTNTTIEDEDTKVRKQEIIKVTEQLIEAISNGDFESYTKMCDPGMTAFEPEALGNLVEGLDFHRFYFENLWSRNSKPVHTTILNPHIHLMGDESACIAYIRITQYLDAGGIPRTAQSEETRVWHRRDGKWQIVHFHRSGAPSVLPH
Sequence of CAMK1D (Q8IU85 whole entry): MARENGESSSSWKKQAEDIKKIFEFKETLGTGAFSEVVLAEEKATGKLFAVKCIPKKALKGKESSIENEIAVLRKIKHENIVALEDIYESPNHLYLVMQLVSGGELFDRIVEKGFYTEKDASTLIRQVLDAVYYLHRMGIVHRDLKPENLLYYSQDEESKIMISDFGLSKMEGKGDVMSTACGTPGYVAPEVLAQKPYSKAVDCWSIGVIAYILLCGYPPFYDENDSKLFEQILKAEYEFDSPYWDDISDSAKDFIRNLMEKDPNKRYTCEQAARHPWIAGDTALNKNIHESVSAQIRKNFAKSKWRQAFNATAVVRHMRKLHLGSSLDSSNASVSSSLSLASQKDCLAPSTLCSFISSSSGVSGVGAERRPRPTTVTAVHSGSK
Sequence of PLK1 (P53350 whole entry): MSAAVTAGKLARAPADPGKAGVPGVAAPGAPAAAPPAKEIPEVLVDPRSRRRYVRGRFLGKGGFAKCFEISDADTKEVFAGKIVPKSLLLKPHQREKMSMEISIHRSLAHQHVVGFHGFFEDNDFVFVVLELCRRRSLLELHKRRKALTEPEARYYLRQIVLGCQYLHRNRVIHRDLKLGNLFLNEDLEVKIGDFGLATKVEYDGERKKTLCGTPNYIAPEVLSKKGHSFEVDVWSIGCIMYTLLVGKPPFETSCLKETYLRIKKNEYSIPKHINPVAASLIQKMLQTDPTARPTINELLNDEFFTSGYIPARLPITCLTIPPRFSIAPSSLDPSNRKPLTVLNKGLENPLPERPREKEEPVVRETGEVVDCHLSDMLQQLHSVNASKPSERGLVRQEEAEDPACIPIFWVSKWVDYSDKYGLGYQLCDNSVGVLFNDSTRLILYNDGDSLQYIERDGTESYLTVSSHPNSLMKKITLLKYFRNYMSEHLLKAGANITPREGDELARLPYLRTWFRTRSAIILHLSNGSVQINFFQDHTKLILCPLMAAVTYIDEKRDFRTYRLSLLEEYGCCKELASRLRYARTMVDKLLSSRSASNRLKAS
Sequence of ZAK (Q9NYL2 whole entry): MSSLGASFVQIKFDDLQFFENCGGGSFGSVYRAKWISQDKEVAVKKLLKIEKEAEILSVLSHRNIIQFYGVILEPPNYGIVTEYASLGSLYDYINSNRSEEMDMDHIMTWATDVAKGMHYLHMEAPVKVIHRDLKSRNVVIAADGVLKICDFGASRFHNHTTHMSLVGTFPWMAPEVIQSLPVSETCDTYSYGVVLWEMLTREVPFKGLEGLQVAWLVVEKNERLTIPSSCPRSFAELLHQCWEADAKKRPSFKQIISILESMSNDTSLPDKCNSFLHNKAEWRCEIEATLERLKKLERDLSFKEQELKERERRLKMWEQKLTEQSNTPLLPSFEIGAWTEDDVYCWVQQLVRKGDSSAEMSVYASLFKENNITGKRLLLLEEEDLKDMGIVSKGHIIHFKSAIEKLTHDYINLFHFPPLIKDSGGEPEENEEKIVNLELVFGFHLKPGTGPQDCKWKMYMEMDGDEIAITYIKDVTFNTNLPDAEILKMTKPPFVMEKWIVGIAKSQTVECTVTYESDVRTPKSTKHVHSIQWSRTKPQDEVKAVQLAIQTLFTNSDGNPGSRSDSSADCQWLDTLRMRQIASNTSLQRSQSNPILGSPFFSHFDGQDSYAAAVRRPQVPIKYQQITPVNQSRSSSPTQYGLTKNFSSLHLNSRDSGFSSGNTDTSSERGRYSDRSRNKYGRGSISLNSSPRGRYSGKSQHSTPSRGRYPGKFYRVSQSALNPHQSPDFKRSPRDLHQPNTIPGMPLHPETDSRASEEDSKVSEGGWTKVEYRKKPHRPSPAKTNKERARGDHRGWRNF
Sequence of PAK4 (O96013 whole entry): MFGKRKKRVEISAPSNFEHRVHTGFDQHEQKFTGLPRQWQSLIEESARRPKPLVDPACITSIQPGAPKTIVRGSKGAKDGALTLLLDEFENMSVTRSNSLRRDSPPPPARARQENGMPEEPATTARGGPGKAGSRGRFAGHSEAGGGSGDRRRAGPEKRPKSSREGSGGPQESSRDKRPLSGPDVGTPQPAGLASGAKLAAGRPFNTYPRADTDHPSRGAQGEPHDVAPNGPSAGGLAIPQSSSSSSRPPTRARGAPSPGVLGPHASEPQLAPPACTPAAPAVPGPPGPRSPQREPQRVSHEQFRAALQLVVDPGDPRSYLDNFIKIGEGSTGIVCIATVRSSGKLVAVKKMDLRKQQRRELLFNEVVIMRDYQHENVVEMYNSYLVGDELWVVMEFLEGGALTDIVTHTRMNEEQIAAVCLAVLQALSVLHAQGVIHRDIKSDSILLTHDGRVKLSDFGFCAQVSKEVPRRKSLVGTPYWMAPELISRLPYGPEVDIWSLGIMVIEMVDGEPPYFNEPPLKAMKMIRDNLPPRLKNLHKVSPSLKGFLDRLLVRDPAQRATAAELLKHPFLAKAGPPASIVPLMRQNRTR
Sequence of CDK8 (P49336 whole entry): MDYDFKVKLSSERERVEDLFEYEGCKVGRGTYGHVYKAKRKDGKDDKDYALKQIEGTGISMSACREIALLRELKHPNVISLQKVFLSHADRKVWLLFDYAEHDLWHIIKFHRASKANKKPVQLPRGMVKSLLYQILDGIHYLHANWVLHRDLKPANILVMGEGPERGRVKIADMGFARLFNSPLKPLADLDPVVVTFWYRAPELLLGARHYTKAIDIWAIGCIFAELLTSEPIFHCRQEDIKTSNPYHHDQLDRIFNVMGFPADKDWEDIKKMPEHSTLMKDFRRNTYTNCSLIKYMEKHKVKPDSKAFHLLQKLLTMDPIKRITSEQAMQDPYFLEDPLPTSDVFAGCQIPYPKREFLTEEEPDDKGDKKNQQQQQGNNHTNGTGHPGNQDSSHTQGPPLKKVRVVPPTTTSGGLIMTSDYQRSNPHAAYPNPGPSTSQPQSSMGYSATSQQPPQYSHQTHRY
Sequence of CSNK1G1 (Q9HCP0 whole entry): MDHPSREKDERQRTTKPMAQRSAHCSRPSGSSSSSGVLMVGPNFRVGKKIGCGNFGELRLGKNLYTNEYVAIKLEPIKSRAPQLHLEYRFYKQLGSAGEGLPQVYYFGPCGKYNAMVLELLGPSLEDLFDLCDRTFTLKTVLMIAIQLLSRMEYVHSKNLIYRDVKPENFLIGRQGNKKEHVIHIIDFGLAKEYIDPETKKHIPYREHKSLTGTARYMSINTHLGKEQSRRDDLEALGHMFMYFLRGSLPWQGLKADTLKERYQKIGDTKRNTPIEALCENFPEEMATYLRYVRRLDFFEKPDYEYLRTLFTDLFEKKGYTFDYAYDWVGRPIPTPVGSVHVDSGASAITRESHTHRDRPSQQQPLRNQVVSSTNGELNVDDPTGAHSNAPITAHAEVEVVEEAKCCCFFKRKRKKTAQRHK
Sequence of AAK1 (Q2M2I8 whole entry): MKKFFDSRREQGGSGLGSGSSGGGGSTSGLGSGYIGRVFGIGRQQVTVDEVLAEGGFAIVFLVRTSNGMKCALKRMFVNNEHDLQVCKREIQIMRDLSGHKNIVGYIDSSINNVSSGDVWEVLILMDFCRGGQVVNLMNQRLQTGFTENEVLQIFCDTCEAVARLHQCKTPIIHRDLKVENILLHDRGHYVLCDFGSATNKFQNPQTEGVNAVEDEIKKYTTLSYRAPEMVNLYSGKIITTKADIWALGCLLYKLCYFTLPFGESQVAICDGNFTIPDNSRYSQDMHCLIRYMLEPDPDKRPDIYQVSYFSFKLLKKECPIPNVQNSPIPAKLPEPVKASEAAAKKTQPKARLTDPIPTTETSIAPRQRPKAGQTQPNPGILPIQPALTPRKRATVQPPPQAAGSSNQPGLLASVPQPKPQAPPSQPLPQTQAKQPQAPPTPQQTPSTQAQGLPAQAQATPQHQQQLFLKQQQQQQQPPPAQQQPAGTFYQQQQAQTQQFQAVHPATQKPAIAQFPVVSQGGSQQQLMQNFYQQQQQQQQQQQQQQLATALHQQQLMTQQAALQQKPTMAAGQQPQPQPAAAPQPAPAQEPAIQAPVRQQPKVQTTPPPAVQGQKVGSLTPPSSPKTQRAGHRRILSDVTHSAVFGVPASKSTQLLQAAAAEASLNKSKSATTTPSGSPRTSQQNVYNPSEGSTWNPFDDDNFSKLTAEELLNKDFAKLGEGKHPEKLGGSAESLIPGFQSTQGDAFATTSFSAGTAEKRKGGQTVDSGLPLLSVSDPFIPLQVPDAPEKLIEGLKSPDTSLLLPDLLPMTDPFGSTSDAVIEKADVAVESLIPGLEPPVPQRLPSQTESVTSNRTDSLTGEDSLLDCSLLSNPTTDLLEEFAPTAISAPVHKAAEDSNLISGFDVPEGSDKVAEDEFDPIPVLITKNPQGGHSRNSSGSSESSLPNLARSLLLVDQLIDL

ΔTm inhibitor 1 [1]: 6.9 °C
ΔTm inhibitor 1 [2]: 3.3 °C
ΔTm inhibitor 1 [3]: 0.6 °C
ΔTm inhibitor 1 [4]: 1.7 °C
ΔTm inhibitor 1 [5]: 0.4 °C
ΔTm inhibitor 1 [6]: 1.5 °C
ΔTm inhibitor 1 [7]: 6.8 °C
ΔTm inhibitor 1 [8]: 2.7 °C
ΔTm inhibitor 1 [9]: 0.5 °C
ΔTm inhibitor 1 [10]: 1.5 °C
ΔTm inhibitor 1 [11]: 1.7 °C
ΔTm inhibitor 1 [12]: 1.4 °C
ΔTm inhibitor 1 [13]: 2.7 °C
ΔTm inhibitor 1 [14]: 2.0 °C
ΔTm inhibitor 1 [15]: 1.7 °C
ΔTm inhibitor 1 [16]: 4.2 °C
Structure (SMILES): CC(=O)c1cccc(-c2cnc3ccc(NCC4CC4)nn23)c1 [compound 1, K00135]

ΔTm inhibitor 2 [1]: 1.5 °C
ΔTm inhibitor 2 [2]: 0.8 °C
ΔTm inhibitor 2 [3]: 0.0 °C
ΔTm inhibitor 2 [4]: 3.2 °C
ΔTm inhibitor 2 [5]: -0.1 °C
ΔTm inhibitor 2 [6]: 1.7 °C
ΔTm inhibitor 2 [7]: 4.9 °C
ΔTm inhibitor 2 [8]: 0.1 °C
ΔTm inhibitor 2 [9]: -0.1 °C
ΔTm inhibitor 2 [10]: -0.1 °C
ΔTm inhibitor 2 [11]: -0.5 °C
ΔTm inhibitor 2 [12]: -0.3 °C
ΔTm inhibitor 2 [13]: 0.5 °C
ΔTm inhibitor 2 [14]: 0.3 °C
ΔTm inhibitor 2 [15]: 0.2 °C
ΔTm inhibitor 2 [16]: 1.0 °C
Structure (SMILES): CCN1/C(=C/C(C)=O)Sc2ccc(OC)cc21 [compound 2, TG003]

ΔTm inhibitor 4 [1]: 3.4 °C
ΔTm inhibitor 4 [2]: 1.9 °C
ΔTm inhibitor 4 [3]: 0.2 °C
ΔTm inhibitor 4 [4]: 1.0 °C
ΔTm inhibitor 4 [5]: 0.6 °C
ΔTm inhibitor 4 [6]: 1.5 °C
ΔTm inhibitor 4 [7]: 5.4 °C
ΔTm inhibitor 4 [8]: 1.9 °C
ΔTm inhibitor 4 [9]: 0.1 °C
ΔTm inhibitor 4 [10]: 0.3 °C
ΔTm inhibitor 4 [11]: 0.4 °C
ΔTm inhibitor 4 [12]: 0.3 °C
ΔTm inhibitor 4 [13]: 1.7 °C
ΔTm inhibitor 4 [14]: 0.4 °C
ΔTm inhibitor 4 [15]: 1.7 °C
ΔTm inhibitor 4 [16]: 6.9 °C
Structure (SMILES): Nc1nccc(-c2ccc3noc(-c4ccc(Cl)cc4)c3c2)n1 [compound 4, K00972]
